Assay results published in a compilation of properties of binary mixtures (doi:10.1016/j.fluid.2022.113414).

Assay: xn = mol fraction of the nth substance listed
Settings: 101.3 kPa

CC(=O)[O-].CN1CCCN2CCC[NH+]=C12 + O
viscosity [mPa·s]
Settings | x1 = 0.103 | x1 = 0.206 | x1 = 0.301 | x1 = 0.405 | x1 = 0.494 | x1 = 0.604
278.2 K | 46 | 329 | 945 | – | 2689 | 3358
283.2 K | – | – | 554 | 1023.1 | – | 1825.2
288.2 K | 24.1 | 131.4 | 340 | 609 | 873 | 1046.1
293.2 K | 18.1 | 87.9 | 217.7 | – | 533 | 629
298.2 K | 13.9 | 61.2 | – | 244.9 | – | 396
303.2 K | 10.9 | 43.9 | – | 164.9 | 224.5 | –
308.2 K | 8.77 | – | – | 114.8 | 153.9 | 176.1
313.2 K | 7.19 | 24.72 | – | 82.4 | – | 123.6
318.2 K | 5.94 | 19.23 | – | 60.6 | – | 89.4
323.2 K | 4.99 | 15.23 | 30 | 45.8 | 59.3 | –
328.2 K | 4.24 | 12.3 | 23.57 | 35.39 | 45.37 | 50.43
333.2 K | 3.65 | – | 18.81 | 27.89 | 35.43 | 39.17
338.2 K | 3.15 | 8.44 | 15.29 | 22.37 | – | 31.03
343.2 K | – | 7.12 | 12.65 | 18.24 | 22.81 | 25.01
348.2 K | 2.45 | 6.08 | 10.59 | 15.11 | 18.74 | 20.47
353.2 K | 2.19 | 5.25 | – | 12.66 | 15.61 | 16.99
358.2 K | – | – | 7.69 | 10.74 | 13.17 | –
363.2 K | 1.78 | 4 | 6.66 | 9.21 | 11.24 | –
368.2 K | – | 3.54 | 5.83 | 7.98 | 9.68 | –
373.2 K | – | 3.17 | – | 6.97 | 8.42 | –
